Reference: ChEMBL document CHEMBL1201862, “PubChem BioAssay data set” (2004)
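Cultured in 96-well plates, cells were exposed to test compound for 48 hours across five concentrations. Here, GI50 denotes the concentration required for 50% inhibition of growth.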 Calls of active or inactive are those of the source. Cut-off read from the data, not from the text of the source: active = GI50 up to about 1.1 µM and inactive = higher.

Legend:
Assay in all cases: NCI tumour cell line growth inhibition, 48 h
A498 = system: A498
BT-549 = system: BT-549
DU-145 = system: DU-145
HL-60 = system: HL-60
HOP-62 = system: HOP-62
HOP-92 = system: HOP-92
Hs-578T = system: Hs-578T
MCF7 = system: MCF7
MDA-MB-435 = system: MDA-MB-435
NCI-H226 = system: NCI-H226
NCI-H23 = system: NCI-H23
OVCAR-3 = system: OVCAR-3
OVCAR-4 = system: OVCAR-4
OVCAR-8 = system: OVCAR-8
SF-539 = system: SF-539
SN12C = system: SN12C
SNB-75 = system: SNB-75
UACC-62 = system: UACC-62
MDA-MB-231 = system: MDA-MB-231
SR = system: SR

| Structure (SMILES) | GI50 (A498) | GI50 (BT-549) | GI50 (DU-145) | GI50 (HL-60) | GI50 (HOP-62) | GI50 (HOP-92) | GI50 (Hs-578T) | GI50 (MCF7) | GI50 (MDA-MB-435) | GI50 (NCI-H226) | GI50 (NCI-H23) | GI50 (OVCAR-3) | GI50 (OVCAR-4) | GI50 (OVCAR-8) | GI50 (SF-539) | GI50 (SN12C) | GI50 (SNB-75) | GI50 (UACC-62) | GI50 (MDA-MB-231) | GI50 (SR) |
| --- | --- | --- | --- | --- | --- | --- | --- | --- | --- | --- | --- | --- | --- | --- | --- | --- | --- | --- | --- | --- |
| Cc1cccc2c1C(=O)/C(=C/c1ccccc1C(=O)O)C2 | > 100 µM (inactive) | > 100 µM (inactive) | > 100 µM (inactive) | > 100 µM (inactive) | > 100 µM (inactive) | > 100 µM (inactive) | > 100 µM (inactive) | > 100 µM (inactive) | > 100 µM (inactive) | 98.4 µM (inactive) | > 100 µM (inactive) | > 100 µM (inactive) | > 100 µM (inactive) | > 100 µM (inactive) | > 100 µM (inactive) | > 100 µM (inactive) | 85.3 µM (inactive) | > 100 µM (inactive) | – | – |
| CC1(C)COC(c2ccccc2-c2ccccc2)=N1 | > 100 µM (inactive) | > 100 µM (inactive) | > 100 µM (inactive) | > 100 µM (inactive) | > 100 µM (inactive) | > 100 µM (inactive) | – | > 100 µM (inactive) | > 100 µM (inactive) | > 100 µM (inactive) | 88.5 µM (inactive) | > 100 µM (inactive) | > 100 µM (inactive) | > 100 µM (inactive) | > 100 µM (inactive) | > 100 µM (inactive) | – | 54.6 µM (inactive) | 56.6 µM (inactive) | > 100 µM (inactive) |
| C(=N\c1ccc(-c2nc3ccccc3[nH]2)cc1)/c1ccco1 | > 100 µM (inactive) | > 100 µM (inactive) | > 100 µM (inactive) | 24.3 µM (inactive) | > 100 µM (inactive) | 44.1 µM (inactive) | > 100 µM (inactive) | 21.1 µM (inactive) | 48.4 µM (inactive) | > 100 µM (inactive) | 82.6 µM (inactive) | 91.4 µM (inactive) | 70 µM (inactive) | 34.4 µM (inactive) | 77.8 µM (inactive) | > 100 µM (inactive) | > 100 µM (inactive) | 89.7 µM (inactive) | – | 37.2 µM (inactive) |
| O=C(/C=C/c1ccccc1)/C=N/N1C(=S)N(c2ccccc2)C(=N\c2ccccc2)/C1=N/c1ccccc1 | – | > 100 µM (inactive) | > 100 µM (inactive) | – | > 100 µM (inactive) | > 100 µM (inactive) | > 100 µM (inactive) | 33 µM (inactive) | – | > 100 µM (inactive) | > 100 µM (inactive) | > 100 µM (inactive) | – | > 100 µM (inactive) | > 100 µM (inactive) | > 100 µM (inactive) | – | > 100 µM (inactive) | > 100 µM (inactive) | > 100 µM (inactive) |
| COc1ccc(C2C(Cl)C(=O)N2NC(=O)c2ccc(N)cc2)cc1OC (stereo unspecified) | 16.6 µM (inactive) | 5.04 µM (inactive) | 16.4 µM (inactive) | 1.64 µM (inactive) | 15.9 µM (inactive) | 2 µM (inactive) | – | 9.84 µM (inactive) | 5.87 µM (inactive) | 18.7 µM (inactive) | 6.08 µM (inactive) | 5.85 µM (inactive) | 5.69 µM (inactive) | 4.08 µM (inactive) | 7.8 µM (inactive) | 9.95 µM (inactive) | 15.6 µM (inactive) | 7.29 µM (inactive) | 14.7 µM (inactive) | 2.2 µM (inactive) |
| CO/N=C(\C(=O)Nc1cncs1)c1csc(NC(c2ccccc2)(c2ccccc2)c2ccccc2)n1 | > 10 µM (inactive) | > 10 µM (inactive) | > 10 µM (inactive) | 6.85 µM (inactive) | > 10 µM (inactive) | > 10 µM (inactive) | > 10 µM (inactive) | 6.08 µM (inactive) | – | > 10 µM (inactive) | > 10 µM (inactive) | > 10 µM (inactive) | > 10 µM (inactive) | > 10 µM (inactive) | 0.628 µM (active) | > 10 µM (inactive) | 9.95 µM (inactive) | – | – | 4.12 µM (inactive) |
| CC1(C)CC[C@]2(C(=O)O)[C@H](O)C[C@]3(C)C(=CC[C@@H]4[C@@]5(C)CC[C@H](OC6OC(C(=O)O)C(O)C(O)C6O)C(C)(C)[C@@H]5CC[C@]43C)[C@@H]2C1 (stereo partly specified) | 22.2 µM (inactive) | 18.5 µM (inactive) | 96.4 µM (inactive) | 22.6 µM (inactive) | > 100 µM (inactive) | 20.3 µM (inactive) | 28.2 µM (inactive) | > 100 µM (inactive) | > 100 µM (inactive) | > 100 µM (inactive) | > 100 µM (inactive) | > 100 µM (inactive) | 22.3 µM (inactive) | 65.6 µM (inactive) | – | 27.1 µM (inactive) | 46.7 µM (inactive) | 23.6 µM (inactive) | – | 21.3 µM (inactive) |
| Cc1ccc(/C=C2/NC(=S)SC2=O)cc1 | – | 22.6 µM (inactive) | 58.5 µM (inactive) | 27.4 µM (inactive) | 51.6 µM (inactive) | 43.8 µM (inactive) | – | 39.6 µM (inactive) | 36.5 µM (inactive) | 25.7 µM (inactive) | 20.7 µM (inactive) | 43.7 µM (inactive) | 28.9 µM (inactive) | 31 µM (inactive) | 30 µM (inactive) | 31 µM (inactive) | 20.7 µM (inactive) | – | 24.4 µM (inactive) | – |
| O=C(CC(C(=O)c1ccc(F)cc1)c1ccsc1)c1cccs1 (stereo unspecified) | > 100 µM (inactive) | – | > 100 µM (inactive) | 55.2 µM (inactive) | > 100 µM (inactive) | – | > 100 µM (inactive) | 82.2 µM (inactive) | > 100 µM (inactive) | 58.1 µM (inactive) | 32.7 µM (inactive) | – | 94.8 µM (inactive) | > 100 µM (inactive) | > 100 µM (inactive) | > 100 µM (inactive) | 94 µM (inactive) | > 100 µM (inactive) | > 100 µM (inactive) | 39.4 µM (inactive) |
| COc1cc2c(cc1C)NC(=O)/C2=C\c1cccnc1 | 10.3 µM (inactive) | 21.9 µM (inactive) | 17.1 µM (inactive) | 5 µM (inactive) | 22.4 µM (inactive) | 25.1 µM (inactive) | 24.7 µM (inactive) | 11.7 µM (inactive) | 13.7 µM (inactive) | – | 10.8 µM (inactive) | 13.7 µM (inactive) | 18.7 µM (inactive) | 15.5 µM (inactive) | 20.4 µM (inactive) | 15.7 µM (inactive) | 17.9 µM (inactive) | – | – | – |
| C=C(C)C1CC/C(C)=C/CC[C@]2(C)O[C@H]2CC/C(COC(C)=O)=C\[C@@H]1O (stereo partly specified) | > 50 µM (inactive) | > 50 µM (inactive) | > 50 µM (inactive) | 27.4 µM (inactive) | 28.8 µM (inactive) | > 50 µM (inactive) | – | > 50 µM (inactive) | 22.7 µM (inactive) | > 50 µM (inactive) | > 50 µM (inactive) | > 50 µM (inactive) | > 50 µM (inactive) | > 50 µM (inactive) | > 50 µM (inactive) | > 50 µM (inactive) | – | > 50 µM (inactive) | > 50 µM (inactive) | 34.6 µM (inactive) |
